These are literature values, as cited in patent US12121591B2, “Sulfur-containing ionizable lipids for the delivery of nucleic acids and other therapeutic agents” (NanoVation Therapeutics Inc., priority 2022, dated 2024).

SMILES strings stand for the structures.

For the data set the following is noted: delivery of siRNA, relative to KC2.

Take `CCCCC/C=C\C/C=C\CCCCCCCCC(CCCCCCCC/C=C\C/C=C\CCCCC)OC(=O)CCCN(C)C` [MC3]: the “siRNA required, times less than KC2” value is given as “about 3 times”.
